# Data: publication PMC7486443, “Generation of Phenothiazine with Potent Anti-TLK1 Activity for Prostate Cancer Therapy” (iScience, 2020)
# Legend:
# Test in all cases: biochemical
# Set-up in all cases: DiscoverX KINOMEscan scanMAX competition binding panel, single concentration, percent of control; remaining binding: dose or concentration left out as unconfirmed
# Details in all cases: KINOMEscan binding, percent of control; read-out: Table S4_SCANMAX REPORT - related to Fig. 1 / Percent Control
# MINK = molecular target: T1, MINK (Homo sapiens, UniProt Q8N4C8)
# T1 construct: gene MINK1
# T1 sequence (Q8N4C8 whole entry): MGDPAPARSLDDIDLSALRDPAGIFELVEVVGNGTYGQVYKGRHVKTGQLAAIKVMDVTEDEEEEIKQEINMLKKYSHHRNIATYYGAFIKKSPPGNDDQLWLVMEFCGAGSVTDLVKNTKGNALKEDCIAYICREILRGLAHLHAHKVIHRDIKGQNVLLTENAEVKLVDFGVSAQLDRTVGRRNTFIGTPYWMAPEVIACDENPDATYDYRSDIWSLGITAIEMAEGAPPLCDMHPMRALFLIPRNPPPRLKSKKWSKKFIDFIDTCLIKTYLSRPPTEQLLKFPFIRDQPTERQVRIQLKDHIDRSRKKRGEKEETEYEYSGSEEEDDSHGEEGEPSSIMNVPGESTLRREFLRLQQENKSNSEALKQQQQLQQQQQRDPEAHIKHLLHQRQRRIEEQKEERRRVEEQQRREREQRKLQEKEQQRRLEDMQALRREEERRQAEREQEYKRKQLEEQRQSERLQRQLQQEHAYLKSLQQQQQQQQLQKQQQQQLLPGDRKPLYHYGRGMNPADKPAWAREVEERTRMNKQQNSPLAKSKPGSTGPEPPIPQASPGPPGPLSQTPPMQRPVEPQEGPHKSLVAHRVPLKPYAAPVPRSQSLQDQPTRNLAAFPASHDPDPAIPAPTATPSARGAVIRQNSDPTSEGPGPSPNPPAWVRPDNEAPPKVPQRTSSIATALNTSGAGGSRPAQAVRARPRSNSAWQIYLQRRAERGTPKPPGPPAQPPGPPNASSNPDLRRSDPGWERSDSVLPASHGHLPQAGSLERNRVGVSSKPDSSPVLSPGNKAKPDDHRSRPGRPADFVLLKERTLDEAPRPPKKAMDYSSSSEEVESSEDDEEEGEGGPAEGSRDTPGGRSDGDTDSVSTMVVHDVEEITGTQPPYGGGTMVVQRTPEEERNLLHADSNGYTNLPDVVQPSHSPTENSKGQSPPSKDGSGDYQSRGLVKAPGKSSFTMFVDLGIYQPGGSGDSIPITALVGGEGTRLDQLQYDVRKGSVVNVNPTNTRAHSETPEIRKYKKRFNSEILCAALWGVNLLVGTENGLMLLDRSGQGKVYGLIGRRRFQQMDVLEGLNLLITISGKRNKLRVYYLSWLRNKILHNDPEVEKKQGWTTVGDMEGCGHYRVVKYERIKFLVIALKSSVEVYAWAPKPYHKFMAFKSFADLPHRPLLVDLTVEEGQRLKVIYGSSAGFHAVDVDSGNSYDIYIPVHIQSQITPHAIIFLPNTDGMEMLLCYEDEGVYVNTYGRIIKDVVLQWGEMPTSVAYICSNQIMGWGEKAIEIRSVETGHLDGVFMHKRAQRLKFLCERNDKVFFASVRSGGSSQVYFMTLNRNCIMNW
# Excerpt: (§1) Certain PTH are potent inhibitors of TLK1 ([Ronald et al., 2013]), and by inference TLK2, as these proteins must homo- and hetero-dimerize for full activation ([Mortuza et al., 2018]), in addition to being highly similar in sequence and structure, and thus similarly targetable. […] Two noteworthy observations are that PTHs are structurally different from many known ATP competitive inhibitors, and that J54 was carefully designed based on considerations reported previously for the THD—the Kinomescan has confirmed that J54 is specific to TLKs. We should point out that although PTH were the first reported inhibitors of TLKs ([Ronald et al., 2013]), other inhibitors particularly of TLK2 have since been reported ([Kim et al., 2016]), some based on structure docking ([Mortuza et al., 2018]), although neither their potency and effects in vivo nor their potential off-target effects have not been reported as they were selected from libraries of kinase inhibitors. Supplementary file mmc2.xlsx: Table S4. SCANMAX Table, Related to Figure 1 Kinomescan of J54 inhibitory activity on human kinases.
# EPHB3 = EPHB3 (Homo sapiens, UniProt P54753)
# Chain of EPHB3 (P54753 whole entry): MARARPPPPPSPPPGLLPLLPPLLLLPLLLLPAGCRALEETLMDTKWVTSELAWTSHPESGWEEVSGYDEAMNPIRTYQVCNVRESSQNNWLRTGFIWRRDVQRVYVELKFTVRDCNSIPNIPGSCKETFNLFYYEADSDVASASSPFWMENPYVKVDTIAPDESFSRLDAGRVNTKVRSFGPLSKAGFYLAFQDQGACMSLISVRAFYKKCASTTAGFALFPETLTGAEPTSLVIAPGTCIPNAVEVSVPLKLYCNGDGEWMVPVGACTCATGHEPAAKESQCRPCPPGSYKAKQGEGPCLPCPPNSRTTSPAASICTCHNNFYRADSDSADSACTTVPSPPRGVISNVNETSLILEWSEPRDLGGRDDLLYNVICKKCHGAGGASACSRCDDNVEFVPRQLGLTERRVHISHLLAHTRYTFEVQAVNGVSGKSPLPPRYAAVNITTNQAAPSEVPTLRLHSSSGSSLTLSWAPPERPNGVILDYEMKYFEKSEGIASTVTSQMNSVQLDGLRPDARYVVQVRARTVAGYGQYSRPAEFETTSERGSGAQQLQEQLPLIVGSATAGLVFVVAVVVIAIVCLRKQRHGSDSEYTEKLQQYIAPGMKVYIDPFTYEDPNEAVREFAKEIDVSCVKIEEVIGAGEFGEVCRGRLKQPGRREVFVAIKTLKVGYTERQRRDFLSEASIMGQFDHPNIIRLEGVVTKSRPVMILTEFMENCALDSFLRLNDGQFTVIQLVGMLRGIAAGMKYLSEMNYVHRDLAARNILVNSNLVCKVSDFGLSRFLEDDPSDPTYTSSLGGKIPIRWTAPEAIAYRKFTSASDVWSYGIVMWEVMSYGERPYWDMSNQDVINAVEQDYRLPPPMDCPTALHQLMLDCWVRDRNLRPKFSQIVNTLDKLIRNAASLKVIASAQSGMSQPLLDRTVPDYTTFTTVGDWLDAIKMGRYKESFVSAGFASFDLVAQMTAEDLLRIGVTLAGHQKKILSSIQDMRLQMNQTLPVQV
# Excerpt: as §1
# FLT3(ITD,F691L) = FLT3(ITD,F691L) (Homo sapiens, UniProt P36888, F691L/ITD)
# Chain of FLT3(ITD,F691L) (P36888 564-993 F691L): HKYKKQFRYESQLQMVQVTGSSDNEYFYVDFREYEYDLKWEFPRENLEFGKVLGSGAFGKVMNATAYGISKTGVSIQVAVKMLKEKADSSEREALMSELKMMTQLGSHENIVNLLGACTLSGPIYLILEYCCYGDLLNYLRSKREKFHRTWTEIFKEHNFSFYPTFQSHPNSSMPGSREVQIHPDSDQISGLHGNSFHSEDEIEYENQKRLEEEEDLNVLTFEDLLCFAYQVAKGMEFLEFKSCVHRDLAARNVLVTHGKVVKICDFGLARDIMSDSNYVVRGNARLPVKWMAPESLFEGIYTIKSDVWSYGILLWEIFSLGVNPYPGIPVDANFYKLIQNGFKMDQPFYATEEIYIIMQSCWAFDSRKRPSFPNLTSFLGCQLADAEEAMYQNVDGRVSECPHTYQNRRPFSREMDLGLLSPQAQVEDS
# Excerpt: as §1
# CDK4 = CDK4 (Homo sapiens, UniProt P11802)
# Chain of CDK4 (P11802 whole entry): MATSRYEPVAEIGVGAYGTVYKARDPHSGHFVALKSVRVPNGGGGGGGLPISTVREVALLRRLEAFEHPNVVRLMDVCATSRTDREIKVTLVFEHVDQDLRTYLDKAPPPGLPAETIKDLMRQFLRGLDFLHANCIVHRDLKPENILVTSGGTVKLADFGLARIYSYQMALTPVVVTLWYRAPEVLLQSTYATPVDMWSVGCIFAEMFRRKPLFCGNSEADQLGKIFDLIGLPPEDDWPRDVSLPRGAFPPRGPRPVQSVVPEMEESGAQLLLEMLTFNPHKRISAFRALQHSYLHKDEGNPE
# Excerpt: as §1
# S6K1 = molecular target: T2, S6K1 (Homo sapiens, UniProt P23443)
# T2 construct: gene RPS6KB1
# T2 sequence (P23443 whole entry): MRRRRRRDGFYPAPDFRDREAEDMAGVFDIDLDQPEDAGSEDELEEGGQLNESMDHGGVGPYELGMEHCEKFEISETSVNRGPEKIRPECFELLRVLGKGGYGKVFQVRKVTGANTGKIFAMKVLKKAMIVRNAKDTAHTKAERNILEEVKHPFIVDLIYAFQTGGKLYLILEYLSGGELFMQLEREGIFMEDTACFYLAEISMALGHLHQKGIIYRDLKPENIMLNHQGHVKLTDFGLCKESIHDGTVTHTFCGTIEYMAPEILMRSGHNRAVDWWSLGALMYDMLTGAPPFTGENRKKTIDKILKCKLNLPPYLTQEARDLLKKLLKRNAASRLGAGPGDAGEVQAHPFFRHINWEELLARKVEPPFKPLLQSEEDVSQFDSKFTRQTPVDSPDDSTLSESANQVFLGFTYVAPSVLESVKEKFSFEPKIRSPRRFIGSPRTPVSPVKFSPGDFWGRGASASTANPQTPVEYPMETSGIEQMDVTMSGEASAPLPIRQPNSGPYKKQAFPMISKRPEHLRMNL
# Excerpt: as §1
# FLT3(ITD) = FLT3(ITD) (Homo sapiens, UniProt P36888, ITD)
# Chain of FLT3(ITD) (P36888 564-993, change not shown): as the sequence (P36888 564-993 F691L) above, with L128F counted along it
# Excerpt: as §1
# DDR2 = DDR2 (Homo sapiens, UniProt Q16832)
# Excerpt: as §1
# TRPM6 = TRPM6 (Homo sapiens, UniProt Q9BX84)
# Excerpt: as §1
# ULK1 = ULK1 (Homo sapiens, UniProt O75385)
# Excerpt: as §1
# SRPK1 = SRPK1 (Homo sapiens, UniProt Q96SB4)
# Excerpt: as §1
# RET(V804M) = RET(V804M) (Homo sapiens, UniProt P07949, V804M)
# Excerpt: as §1
# GAK = GAK (Homo sapiens, UniProt O14976)
# Excerpt: as §1
# CDK11 = molecular target: T3, CDK11 (Homo sapiens, UniProt Q9BWU1)
# T3 construct: gene CDK19
# T3 sequence (Q9BWU1 whole entry): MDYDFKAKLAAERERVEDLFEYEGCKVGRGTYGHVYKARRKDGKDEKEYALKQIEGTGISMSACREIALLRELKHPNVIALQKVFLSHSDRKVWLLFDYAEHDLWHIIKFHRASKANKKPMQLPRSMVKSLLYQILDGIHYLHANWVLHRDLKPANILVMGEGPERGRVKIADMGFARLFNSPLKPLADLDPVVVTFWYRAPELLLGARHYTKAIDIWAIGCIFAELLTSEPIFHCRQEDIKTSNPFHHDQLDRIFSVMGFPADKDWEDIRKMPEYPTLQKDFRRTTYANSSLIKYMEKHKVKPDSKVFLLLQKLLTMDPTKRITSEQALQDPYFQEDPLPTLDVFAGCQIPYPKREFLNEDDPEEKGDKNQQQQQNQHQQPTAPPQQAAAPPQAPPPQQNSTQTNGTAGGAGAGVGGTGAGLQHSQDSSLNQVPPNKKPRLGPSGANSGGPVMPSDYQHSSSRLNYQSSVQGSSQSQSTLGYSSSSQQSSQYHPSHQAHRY
# Excerpt: as §1
# ACVR2A = ACVR2A (Homo sapiens, UniProt P27037)
# Excerpt: as §1
# RIPK4 = RIPK4 (Homo sapiens, UniProt P57078)
# Excerpt: as §1
# CDKL3 = CDKL3 (Homo sapiens, UniProt Q8IVW4)
# Excerpt: as §1
# MYLK2 = MYLK2 (Homo sapiens, UniProt Q9H1R3)
# Chain of MYLK2 (Q9H1R3 whole entry): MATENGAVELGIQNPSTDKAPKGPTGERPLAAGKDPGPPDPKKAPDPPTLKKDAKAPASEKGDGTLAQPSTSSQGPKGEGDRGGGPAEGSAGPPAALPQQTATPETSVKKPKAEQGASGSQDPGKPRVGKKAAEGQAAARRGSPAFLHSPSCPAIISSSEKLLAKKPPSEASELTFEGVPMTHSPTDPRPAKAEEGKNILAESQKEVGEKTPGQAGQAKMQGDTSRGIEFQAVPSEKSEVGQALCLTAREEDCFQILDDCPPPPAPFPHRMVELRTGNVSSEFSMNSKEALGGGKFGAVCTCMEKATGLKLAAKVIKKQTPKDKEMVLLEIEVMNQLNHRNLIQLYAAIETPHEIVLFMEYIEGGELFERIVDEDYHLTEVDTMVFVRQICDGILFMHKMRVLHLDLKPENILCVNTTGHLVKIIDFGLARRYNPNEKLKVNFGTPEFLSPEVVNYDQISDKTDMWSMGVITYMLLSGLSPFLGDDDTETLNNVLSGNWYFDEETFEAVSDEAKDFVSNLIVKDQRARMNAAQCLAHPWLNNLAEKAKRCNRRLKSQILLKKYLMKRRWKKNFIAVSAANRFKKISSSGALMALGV
# Excerpt: as §1
# MYLK = MYLK (Homo sapiens, UniProt Q15746)
# Excerpt: as §1
# DMPK2 = molecular target: T4, DMPK2 (Homo sapiens, UniProt Q6DT37)
# T4 construct: gene CDC42BPG
# Excerpt: as §1
smiles,measurement,setting,value
c1ccc2c(c1)Sc1ccccc1N2CCN1CCOCC1 [J54],remaining binding,MINK,100%
same,remaining binding,EPHB3,100%
same,remaining binding,"FLT3(ITD,F691L)",65%
same,remaining binding,CDK4,100%
same,remaining binding,S6K1,100%
same,remaining binding,FLT3(ITD),68%
same,remaining binding,DDR2,88%
same,remaining binding,TRPM6,100%
same,remaining binding,ULK1,99%
same,remaining binding,SRPK1,100%
same,remaining binding,RET(V804M),100%
same,remaining binding,GAK,95%
same,remaining binding,CDK11,81%
same,remaining binding,ACVR2A,86%
same,remaining binding,RIPK4,100%
same,remaining binding,CDKL3,100%
same,remaining binding,MYLK2,74%
same,remaining binding,MYLK,97%
same,remaining binding,DMPK2,89%
